Reference: ChEMBL document CHEMBL1201862, “PubChem BioAssay data set” (2004)
Active and inactive are the calls of the source.

Assays:
[1] = MITF: Counter assay: A375 proliferation Measured in Cell-Based System Using Plate Reader - 2084-03_Inhibitor_Dose_DryPowder_Activity_Set8.; type: functional; details: A-375
[2] = TRPM1 promoter luciferase reporter signal decrease, dose response, MITF inhibitor project, cell-based, SK-MEL-5, dry powder, set 8 (AID 624430); type: functional
[3] = MITF Orthogonal Assay: SK-MEL-5 CTG Assay Measured in Cell-Based System Using Plate Reader - 2084-02_Inhibitor_Dose_DryPowder_Activity_Set7.; type: functional
[4] = Luminescence Cell-Based Dose Retest to Confirm Inhibitors of Cancer Stem Cells. [Related pubchem assays (depositor defined):AID2717, AID2721]; type: functional; details: Homo sapiens
[5] = target: Nuclear receptor subfamily 0 group B member 1 (Homo sapiens, UniProt P51843); type: functional, cell-based;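 further: HEK293T cells transfected with SF-1 and DAX-1 plus StAR promoter luciferase reporter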
[6] = target: T1, Low molecular weight phosphotyrosine protein phosphatase (Homo sapiens, UniProt P24666); type: functional; details: read-out: IC50_Mean
T1 sequence (P24666 whole entry): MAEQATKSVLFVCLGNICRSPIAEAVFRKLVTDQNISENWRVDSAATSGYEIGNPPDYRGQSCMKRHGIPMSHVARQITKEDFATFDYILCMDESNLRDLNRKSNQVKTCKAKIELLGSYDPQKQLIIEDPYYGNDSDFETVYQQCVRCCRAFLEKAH

cells = type: functional, cell-based
[7] = target: T1, Low molecular weight phosphotyrosine protein phosphatase; type: functional; details: read-out: IC50_Mean; remark: listed apart in the source
[8] = target: T2, Botulinum neurotoxin type A (Clostridium botulinum (strain Hall / ATCC 3502 / NCTC 13319 / Type A), UniProt P0DPI1); assay: High-throughput multiplex microsphere dose response for inhibitors of toxin protease, specifically Botulinum neurotoxin light chain A protease, compounds from Powder Set 01.; type: functional, Clostridium botulinum A str. ATCC 3502; details: read-out: EC50_MICROM
Lethal factor = Lethal factor (Bacillus anthracis, UniProt P15917); assay: High-throughput multiplex microsphere dose response for inhibitors of toxin protease, specifically Lethal Factor protease, compounds from Powder Set 01.; type: functional, Bacillus anthracis str. A2012; details: read-out: EC50_MICROM
[9] = target: T2, Botulinum neurotoxin type A; assay: Confirmatory FRET assay using full length substrates for Botulinum neurotoxin light chain A protease, with Powder Set01.; type: functional
[10] = target: Metabotropic glutamate receptor 3 (Rattus norvegicus, UniProt P31422); assay: mGlu3 NAM potency via calcium readout, dose response, mGlu3 NAM project, TREx293 cells, Galpha15, calcium flux (AID 651840); type: functional
[11] = HepG2 cell cytotoxicity, dose response, cytotoxicity control, cherry-picked samples (AID 1159577); type: functional, cell-based
[12] = inhibitors of PGC1a acetylation in cells, dose response, cell-based, cherry-picked samples (AID 720514); type: functional;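 further: potency may reflect raised or lowered acetylation signal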
[13] = miR-122 activators in hepatoma reporter cells, dose response, cell-based, Huh7 psiCHECK-miR122, Renilla luciferase, cherry-picked (AID 651956); type: functional;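 further: huh7 hepatoma cells stably carrying a psiCHECK-2 miR-122 sensor plasmid; renilla luciferase signal reporting endogenous miR-122 activity after 48 h compound exposure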
[14] = HEK293T cytotoxicity, dose response, cytotoxicity control for miR-122 modulator project, cell-based, activator set, cherry-pick (AID 720690); type: functional;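 further: HEK293T human cells scored for general mammalian cytotoxicity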
[15] = P. falciparum Dd2 growth inhibitors, dose response, SYBR Green, cherry-picked samples (AID 1159567); type: functional, cell-based
[16] = target: Heat shock protein HSP 90-alpha (Homo sapiens, UniProt P07900); type: functional, organism-based
[17] = ADAM10 protease inhibitors, dose response, selectivity assay for ADAM17 exosite inhibitor project, biochemical, FRET peptide substrate, recombinant human ADAM10 (AID 743259);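 further: ADAM10 enzyme cleaving a FRET peptide substrate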
[18] = target: Disintegrin and metalloproteinase domain-containing protein 17 (Homo sapiens, UniProt P78536); assay: exosite inhibitors of ADAM17, dose response, biochemical (AID 743260)
[19] = PAX2 cell-based inhibition, dose response, selectivity assay for PAX8 inhibitor project, plate reader, dry powder samples (AID 743048); type: functional;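 further: HEK293 cells carrying a WT1 promoter luciferase reporter driven by expressed Pax2; potency is for inhibition of Pax2 driven reporter signal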
[20] = PAX5 activity inhibitors, dose response, selectivity assay for PAX8 inhibitor project, cell-based, plate reader, dry powder samples (AID 743047); type: functional;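 further: HEK293 cells carrying a Pax5 driven CD19 promoter luciferase reporter; potency of inhibitors that lower reporter luminescence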
Paired box protein Pax-8 = Paired box protein Pax-8 (Homo sapiens, UniProt Q06710); assay: inhibitors of PAX8-driven TPO luciferase reporter, dose response, RMG-I cells, cherry-pick (AID 687027); type: functional, cell-based;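 further: luciferase reporter driven by Pax8 target thyroperoxidase promoter measured by SteadyGlo luminescence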
[21] = cytotoxicity in OV-90 ovarian cancer cells, dose response, PAX8 inhibitor project, cell-based, plate reader, dry powder, SA8 (AID 743149); type: functional

T2 sequence (P0DPI1 2-448 limits assumed): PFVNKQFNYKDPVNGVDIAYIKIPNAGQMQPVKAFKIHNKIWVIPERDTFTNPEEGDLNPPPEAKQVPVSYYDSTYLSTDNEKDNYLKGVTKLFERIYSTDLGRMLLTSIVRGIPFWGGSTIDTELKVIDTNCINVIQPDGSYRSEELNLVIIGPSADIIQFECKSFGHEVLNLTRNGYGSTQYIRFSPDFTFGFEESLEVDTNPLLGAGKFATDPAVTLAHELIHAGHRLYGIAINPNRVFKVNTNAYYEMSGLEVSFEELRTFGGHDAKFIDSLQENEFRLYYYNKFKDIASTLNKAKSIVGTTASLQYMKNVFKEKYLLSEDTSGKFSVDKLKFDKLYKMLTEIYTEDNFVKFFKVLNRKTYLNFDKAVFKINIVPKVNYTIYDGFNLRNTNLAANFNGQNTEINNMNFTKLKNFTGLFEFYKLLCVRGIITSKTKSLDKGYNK
Chain of Lethal factor (P15917 whole entry): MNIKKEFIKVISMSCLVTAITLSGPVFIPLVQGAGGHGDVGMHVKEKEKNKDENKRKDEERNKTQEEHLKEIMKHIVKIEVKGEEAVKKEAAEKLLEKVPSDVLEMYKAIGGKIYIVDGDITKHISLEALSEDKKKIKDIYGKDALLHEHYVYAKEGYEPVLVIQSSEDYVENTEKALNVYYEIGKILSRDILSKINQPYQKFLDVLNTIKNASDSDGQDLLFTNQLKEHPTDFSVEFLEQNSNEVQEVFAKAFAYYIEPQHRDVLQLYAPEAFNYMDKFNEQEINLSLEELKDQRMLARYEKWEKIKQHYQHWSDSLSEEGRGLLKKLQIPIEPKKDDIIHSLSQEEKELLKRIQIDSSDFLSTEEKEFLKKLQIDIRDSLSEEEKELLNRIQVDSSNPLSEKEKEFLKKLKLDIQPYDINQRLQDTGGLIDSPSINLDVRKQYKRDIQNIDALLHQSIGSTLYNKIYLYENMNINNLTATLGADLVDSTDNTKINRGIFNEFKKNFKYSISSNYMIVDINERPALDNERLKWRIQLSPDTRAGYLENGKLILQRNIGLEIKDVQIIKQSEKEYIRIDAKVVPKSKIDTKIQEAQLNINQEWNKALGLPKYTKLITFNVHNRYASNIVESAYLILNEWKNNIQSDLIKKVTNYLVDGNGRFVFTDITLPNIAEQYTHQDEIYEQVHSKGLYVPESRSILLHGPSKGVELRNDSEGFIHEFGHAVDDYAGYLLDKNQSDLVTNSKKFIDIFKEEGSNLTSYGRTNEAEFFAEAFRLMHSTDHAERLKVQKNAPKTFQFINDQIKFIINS
Chain of Metabotropic glutamate receptor 3 (P31422 whole entry): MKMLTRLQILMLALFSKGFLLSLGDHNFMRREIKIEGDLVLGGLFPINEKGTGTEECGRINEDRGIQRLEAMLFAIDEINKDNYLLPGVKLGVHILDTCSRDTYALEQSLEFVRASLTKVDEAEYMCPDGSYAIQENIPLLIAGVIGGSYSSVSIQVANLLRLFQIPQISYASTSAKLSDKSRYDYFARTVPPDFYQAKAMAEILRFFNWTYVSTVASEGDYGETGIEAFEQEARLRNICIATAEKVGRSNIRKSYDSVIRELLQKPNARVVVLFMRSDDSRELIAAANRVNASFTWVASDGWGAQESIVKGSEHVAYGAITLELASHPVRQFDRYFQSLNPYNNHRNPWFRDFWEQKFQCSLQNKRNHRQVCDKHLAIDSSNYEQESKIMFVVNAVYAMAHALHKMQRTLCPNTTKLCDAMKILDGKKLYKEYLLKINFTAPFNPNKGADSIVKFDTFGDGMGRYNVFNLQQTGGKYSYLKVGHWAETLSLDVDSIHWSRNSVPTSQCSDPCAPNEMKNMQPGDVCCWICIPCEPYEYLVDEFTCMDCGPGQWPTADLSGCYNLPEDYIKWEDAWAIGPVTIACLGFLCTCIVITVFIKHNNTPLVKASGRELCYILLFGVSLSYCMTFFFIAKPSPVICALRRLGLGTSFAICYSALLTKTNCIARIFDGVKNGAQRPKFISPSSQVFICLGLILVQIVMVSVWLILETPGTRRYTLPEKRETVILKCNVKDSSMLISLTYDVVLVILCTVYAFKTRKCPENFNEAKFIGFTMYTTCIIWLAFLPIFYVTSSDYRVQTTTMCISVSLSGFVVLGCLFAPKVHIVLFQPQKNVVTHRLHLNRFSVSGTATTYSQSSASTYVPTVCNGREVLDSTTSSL
Chain of Nuclear receptor subfamily 0 group B member 1 (P51843 whole entry): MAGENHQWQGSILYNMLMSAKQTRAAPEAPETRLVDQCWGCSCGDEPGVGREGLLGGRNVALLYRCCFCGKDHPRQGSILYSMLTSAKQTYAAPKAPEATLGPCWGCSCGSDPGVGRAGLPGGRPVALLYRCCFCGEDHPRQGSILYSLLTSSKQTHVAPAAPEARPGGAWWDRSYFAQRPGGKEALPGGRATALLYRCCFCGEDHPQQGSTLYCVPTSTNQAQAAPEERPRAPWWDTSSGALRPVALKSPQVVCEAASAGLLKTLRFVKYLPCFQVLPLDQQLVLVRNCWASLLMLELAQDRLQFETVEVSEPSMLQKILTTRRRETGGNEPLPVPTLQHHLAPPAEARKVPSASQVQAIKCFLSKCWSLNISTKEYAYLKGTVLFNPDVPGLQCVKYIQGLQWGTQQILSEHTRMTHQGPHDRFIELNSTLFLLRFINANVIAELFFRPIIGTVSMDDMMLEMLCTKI
Chain of Paired box protein Pax-8 (Q06710 whole entry): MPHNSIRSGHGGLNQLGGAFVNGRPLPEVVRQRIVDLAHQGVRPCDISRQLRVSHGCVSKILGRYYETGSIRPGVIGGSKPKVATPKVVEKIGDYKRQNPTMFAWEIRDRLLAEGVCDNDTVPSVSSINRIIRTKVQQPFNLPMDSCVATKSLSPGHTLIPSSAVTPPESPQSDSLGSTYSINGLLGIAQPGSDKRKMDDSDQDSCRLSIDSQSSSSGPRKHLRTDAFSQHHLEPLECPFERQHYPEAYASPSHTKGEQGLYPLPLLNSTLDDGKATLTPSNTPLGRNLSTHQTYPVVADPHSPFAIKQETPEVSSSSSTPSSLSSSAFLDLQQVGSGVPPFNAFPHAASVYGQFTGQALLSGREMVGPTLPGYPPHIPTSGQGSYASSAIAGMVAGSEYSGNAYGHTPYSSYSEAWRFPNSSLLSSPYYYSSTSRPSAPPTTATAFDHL
Chain of Disintegrin and metalloproteinase domain-containing protein 17 (P78536 whole entry, the tested form may be a part): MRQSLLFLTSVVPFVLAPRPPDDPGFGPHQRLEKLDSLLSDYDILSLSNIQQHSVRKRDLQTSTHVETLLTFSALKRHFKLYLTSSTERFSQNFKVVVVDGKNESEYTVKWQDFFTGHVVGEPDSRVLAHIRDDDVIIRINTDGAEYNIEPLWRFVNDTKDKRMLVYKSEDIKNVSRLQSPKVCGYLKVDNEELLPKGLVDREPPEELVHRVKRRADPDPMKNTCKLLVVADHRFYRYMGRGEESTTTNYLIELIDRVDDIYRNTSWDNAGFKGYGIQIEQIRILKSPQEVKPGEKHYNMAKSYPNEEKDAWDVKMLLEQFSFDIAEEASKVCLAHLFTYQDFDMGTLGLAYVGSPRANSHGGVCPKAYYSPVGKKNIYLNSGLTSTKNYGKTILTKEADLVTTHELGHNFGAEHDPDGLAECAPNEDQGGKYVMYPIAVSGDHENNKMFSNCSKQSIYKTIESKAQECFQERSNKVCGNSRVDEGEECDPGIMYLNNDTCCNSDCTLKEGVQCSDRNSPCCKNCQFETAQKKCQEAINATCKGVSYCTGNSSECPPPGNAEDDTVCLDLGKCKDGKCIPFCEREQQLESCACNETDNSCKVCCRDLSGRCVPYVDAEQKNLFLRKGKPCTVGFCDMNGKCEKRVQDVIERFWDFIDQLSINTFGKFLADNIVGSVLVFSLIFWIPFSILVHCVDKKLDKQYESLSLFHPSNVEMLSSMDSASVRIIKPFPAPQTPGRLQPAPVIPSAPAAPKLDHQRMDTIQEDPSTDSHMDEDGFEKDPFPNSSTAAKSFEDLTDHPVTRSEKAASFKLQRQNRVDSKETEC

O=C1C=C(NCc2ccc(Cl)cc2)C(=O)c2ccccc21
AC50 [1]: > 70 µM (inactive)
AC50 [2]: > 70 µM (inactive)
AC50 [3]: 53.3 µM (active)

CC(Nc1nc(-c2ccccc2)nc2ccccc12)c1ccccc1 (centres undefined)
AC50 [4]: 4.43 µM (active)
IC50 [5]: > 67.5 µM (inactive)
IC50 [6]: 23.1 µM (inactive)
IC50 (cells): > 67.5 µM (inactive)
IC50 [7]: > 80 µM (inactive)

COc1ccc(C2CC(c3cccs3)=NN2c2nc(C)c(C(C)=O)s2)cc1OC (centres undefined)
EC50 [8]: 7.5 µM (active)
EC50 (Lethal factor): 9.6 µM (active)
EC50 [9]: 10.4 µM (active)

CCC1(O)CCCN(C(=O)c2ccc(C#Cc3ccc(OC)cc3)cc2)C1 (centres undefined)
IC50 [10]: 1.8 µM

O=C(Nc1ccc(F)cc1)N1CCCCN2[C@H](CO)[C@H](c3ccc(C#Cc4ccccc4)cc3)[C@H]2C1
AC50 [11]: 9.51 µM (active)
AC50 [12]: 17.2 µM (active)
AC50 [13]: 7.46 µM (active)
AC50 [14]: 7.78 µM (active)
AC50 [15]: 1.2 µM (active)

OCCCn1c(C2CCCN2c2nc(-c3ccc(F)cc3)cs2)nc2cc(Cl)c(Cl)cc21 (centres undefined)
AC50 [16]: 5.05 µM (active)
IC50 [17]: > 69.5 µM (inactive)
IC50 [18]: > 69.5 µM (inactive)

COc1ccc(S(=O)(=O)N2CCCCN3[C@H](CO)[C@H](c4ccc(C#CC(C)C)cc4)[C@H]3C2)cc1
AC50 [19]: 40.7 µM (active)
AC50 [20]: 36.8 µM (active)
AC50 (Paired box protein Pax-8): 10.4 µM (active)
AC50 [21]: 65.5 µM (active)
